Assays:
Test in all cases: KINOMEscan competition binding
Conditions in all cases: compound 10.0 µM
[1] = biological target: WNK1 (human) (UniProt Q9H4A3)
[2] = biological target: WNK3 (human) (UniProt Q9BYP7)
[3] = system: ABL1 (human), P00519 [F317L]
[4] = system: ABL1 (human), P00519 [F317I]
[5] = biological target: NEK10 (human) (UniProt Q6ZWH5)
Sequence of NEK10 (human) (Q6ZWH5 whole entry, looked up): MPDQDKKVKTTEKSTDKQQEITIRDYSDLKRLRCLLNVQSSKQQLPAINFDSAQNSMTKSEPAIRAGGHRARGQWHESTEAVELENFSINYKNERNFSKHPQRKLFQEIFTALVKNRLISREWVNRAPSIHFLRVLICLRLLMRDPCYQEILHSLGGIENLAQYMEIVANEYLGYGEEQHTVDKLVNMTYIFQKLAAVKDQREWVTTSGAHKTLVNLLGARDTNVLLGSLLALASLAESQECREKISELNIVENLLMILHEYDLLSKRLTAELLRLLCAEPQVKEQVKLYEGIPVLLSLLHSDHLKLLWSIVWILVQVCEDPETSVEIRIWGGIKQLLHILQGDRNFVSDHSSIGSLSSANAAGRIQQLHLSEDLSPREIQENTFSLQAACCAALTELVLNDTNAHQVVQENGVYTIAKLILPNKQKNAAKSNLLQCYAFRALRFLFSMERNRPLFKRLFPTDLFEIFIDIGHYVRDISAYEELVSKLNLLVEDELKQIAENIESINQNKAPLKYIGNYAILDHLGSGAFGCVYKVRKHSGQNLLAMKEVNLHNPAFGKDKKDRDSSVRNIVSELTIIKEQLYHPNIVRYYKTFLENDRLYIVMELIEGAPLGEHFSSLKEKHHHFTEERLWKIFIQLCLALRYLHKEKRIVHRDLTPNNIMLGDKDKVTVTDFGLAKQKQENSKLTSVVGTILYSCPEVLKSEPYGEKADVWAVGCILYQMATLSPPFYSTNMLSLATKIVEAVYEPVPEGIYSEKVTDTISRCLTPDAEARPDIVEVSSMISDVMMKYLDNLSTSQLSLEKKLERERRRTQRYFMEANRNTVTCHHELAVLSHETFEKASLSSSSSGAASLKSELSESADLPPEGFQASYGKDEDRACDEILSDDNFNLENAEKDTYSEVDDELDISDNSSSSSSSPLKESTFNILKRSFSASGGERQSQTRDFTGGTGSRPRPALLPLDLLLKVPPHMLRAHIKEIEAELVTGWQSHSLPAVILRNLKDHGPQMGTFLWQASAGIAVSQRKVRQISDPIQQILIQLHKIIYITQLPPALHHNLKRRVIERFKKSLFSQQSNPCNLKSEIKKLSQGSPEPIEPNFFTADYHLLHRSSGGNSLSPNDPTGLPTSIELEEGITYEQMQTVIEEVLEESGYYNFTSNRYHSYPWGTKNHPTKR

Sequence of ABL1 (human), P00519 [F317I] (P00519 whole entry F317I, looked up): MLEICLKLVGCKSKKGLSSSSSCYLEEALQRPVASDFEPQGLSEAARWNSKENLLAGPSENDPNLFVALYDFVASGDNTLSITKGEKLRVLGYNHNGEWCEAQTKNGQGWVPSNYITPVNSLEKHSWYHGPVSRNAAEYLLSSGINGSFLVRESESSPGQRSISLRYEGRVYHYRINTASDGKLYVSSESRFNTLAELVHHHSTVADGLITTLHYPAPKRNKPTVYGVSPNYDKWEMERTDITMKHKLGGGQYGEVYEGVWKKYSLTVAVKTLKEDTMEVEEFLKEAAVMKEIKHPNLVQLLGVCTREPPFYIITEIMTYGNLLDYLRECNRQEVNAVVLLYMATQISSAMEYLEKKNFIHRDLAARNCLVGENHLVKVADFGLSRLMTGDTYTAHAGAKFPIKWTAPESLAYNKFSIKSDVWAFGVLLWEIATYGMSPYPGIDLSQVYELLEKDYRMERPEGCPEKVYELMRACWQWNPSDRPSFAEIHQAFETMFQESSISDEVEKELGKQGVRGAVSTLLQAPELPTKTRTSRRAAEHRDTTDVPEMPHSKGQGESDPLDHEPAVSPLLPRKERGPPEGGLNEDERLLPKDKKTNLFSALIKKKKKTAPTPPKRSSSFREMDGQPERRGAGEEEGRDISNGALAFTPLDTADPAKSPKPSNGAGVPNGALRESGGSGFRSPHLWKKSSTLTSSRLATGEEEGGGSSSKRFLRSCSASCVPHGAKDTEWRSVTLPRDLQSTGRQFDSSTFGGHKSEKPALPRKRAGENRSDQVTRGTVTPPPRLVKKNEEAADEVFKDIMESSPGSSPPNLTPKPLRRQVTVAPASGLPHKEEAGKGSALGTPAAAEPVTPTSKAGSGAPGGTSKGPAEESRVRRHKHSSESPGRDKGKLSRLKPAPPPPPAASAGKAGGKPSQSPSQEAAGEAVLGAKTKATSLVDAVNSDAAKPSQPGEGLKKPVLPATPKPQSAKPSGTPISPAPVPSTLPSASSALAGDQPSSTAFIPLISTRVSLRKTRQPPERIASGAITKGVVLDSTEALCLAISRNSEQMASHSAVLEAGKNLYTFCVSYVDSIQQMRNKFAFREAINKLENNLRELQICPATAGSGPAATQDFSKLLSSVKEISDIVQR
Sequence of WNK1 (human) (Q9H4A3 whole entry, looked up): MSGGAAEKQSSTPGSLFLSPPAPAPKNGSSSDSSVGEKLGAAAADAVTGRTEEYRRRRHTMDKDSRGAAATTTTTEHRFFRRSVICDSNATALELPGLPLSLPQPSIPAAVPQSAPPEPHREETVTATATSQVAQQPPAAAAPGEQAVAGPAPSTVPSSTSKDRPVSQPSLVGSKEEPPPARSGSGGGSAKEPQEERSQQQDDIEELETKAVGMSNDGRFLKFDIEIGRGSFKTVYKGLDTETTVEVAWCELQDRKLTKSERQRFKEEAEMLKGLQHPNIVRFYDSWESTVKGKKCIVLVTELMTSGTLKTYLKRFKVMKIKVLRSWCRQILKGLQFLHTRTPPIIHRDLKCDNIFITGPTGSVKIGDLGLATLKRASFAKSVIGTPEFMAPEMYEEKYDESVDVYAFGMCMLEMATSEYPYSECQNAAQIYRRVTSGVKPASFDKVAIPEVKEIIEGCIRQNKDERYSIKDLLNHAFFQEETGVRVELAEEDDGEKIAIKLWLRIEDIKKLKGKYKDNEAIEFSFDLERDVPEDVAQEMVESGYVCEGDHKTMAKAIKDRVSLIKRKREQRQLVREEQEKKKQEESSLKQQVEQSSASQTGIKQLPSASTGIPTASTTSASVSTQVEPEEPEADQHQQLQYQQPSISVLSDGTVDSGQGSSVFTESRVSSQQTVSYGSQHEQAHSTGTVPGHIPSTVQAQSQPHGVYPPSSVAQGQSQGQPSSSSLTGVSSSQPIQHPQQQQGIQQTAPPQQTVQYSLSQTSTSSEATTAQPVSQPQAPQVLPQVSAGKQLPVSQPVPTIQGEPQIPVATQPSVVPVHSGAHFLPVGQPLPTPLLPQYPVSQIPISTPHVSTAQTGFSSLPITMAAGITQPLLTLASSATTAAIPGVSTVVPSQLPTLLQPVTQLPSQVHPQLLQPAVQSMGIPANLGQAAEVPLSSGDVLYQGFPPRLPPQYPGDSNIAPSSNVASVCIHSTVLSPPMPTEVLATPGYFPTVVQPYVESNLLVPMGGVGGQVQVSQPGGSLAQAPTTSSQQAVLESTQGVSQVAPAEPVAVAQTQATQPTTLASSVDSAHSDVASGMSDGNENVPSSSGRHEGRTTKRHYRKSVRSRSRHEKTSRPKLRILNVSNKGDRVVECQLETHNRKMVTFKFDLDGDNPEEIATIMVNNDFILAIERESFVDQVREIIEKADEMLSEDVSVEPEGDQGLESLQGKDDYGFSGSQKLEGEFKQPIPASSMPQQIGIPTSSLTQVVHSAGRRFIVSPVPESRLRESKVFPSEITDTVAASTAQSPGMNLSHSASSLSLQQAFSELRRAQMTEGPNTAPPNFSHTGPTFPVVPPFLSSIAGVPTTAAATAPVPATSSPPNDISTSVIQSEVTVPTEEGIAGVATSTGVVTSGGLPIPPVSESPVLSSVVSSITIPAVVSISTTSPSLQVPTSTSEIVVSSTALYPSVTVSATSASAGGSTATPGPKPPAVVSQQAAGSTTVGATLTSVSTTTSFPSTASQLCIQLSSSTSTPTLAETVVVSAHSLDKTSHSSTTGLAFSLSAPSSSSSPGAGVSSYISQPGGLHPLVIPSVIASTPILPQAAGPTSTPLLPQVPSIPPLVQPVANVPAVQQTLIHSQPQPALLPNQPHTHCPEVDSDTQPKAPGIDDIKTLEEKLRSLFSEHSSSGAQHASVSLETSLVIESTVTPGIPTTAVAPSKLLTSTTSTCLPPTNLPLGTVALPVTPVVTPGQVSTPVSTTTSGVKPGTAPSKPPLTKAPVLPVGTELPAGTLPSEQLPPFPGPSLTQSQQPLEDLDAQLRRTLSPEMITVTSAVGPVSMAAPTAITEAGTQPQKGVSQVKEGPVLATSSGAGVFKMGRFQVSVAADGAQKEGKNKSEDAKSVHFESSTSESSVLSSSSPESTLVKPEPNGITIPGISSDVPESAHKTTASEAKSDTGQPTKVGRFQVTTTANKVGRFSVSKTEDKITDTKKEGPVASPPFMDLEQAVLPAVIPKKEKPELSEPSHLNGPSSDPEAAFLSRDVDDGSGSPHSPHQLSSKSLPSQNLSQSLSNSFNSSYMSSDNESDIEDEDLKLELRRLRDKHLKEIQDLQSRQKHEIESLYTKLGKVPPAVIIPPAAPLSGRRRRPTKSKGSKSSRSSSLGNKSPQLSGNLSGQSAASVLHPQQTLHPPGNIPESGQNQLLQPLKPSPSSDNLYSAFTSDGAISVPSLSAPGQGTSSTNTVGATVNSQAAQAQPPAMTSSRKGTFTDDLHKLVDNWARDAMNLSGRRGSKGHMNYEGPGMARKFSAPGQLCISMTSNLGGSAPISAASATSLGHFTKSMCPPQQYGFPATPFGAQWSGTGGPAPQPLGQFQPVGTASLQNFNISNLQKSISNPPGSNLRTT
Sequence of ABL1 (human), P00519 [F317L] (P00519 whole entry F317L, looked up): as the sequence (P00519 whole entry F317I, looked up) above, with I317L counted along it

Structure (SMILES)	kinase still bound, per cent of control [1]	kinase still bound, per cent of control [2]	kinase still bound, per cent of control [3]	kinase still bound, per cent of control [4]	kinase still bound, per cent of control [5]
CNC(=O)Nc1ccc(-c2nc(N3CC4CCC(C3)O4)c3cnn(C4CCC5(CC4)OCCO5)c3n2)cc1	95%	100%			
CCOc1cc(N2CCC(O)CC2)ccc1Nc1ncc2c(n1)N(C)c1ccccc1C(=O)N2C			100%	30%	
Cc1cn(-c2cc(C(=O)Nc3ccc(C)c(NC(=O)c4ccno4)c3)cc(C(F)(F)F)c2)cn1			1.4%	0.95%	
O=c1[nH]c2ccccc2n1C1CCN(Cc2ccc(-c3nc4cc5[nH]cnc5cc4nc3-c3ccccc3)cc2)CC1	89%	95%			78%
COc1cc2ncnc(Nc3cccc(Cl)c3)c2cc1OC	71%	78%			91%
COc1cc(N2CCC(C(N)=O)CC2)ccc1Nc1nc(N)c(Cl)c(Nc2ccccc2S(=O)(=O)C(C)C)n1			12%	4.8%	
COc1cc(C)c(Sc2cnc(NC(=O)c3ccc(CNC(C)C(C)C)cc3)s2)cc1C(=O)N1CCN(C(C)=O)CC1 (stereo unspecified)			100%	100%	

— the kinase profiling compilation of Christmann-Franck et al. (2016)
